Laboratory results from the NIST ThermoML archive (doi:10.1016/j.fluid.2012.01.014).

Experiment: cn = amount concentration of the nth substance listed, in mol/dm3
Conditions: Ring tensiometer

CCCCCCCCCCCCCCCC[n+]1ccccc1.[Br-] [1-hexadecylpyridinium bromide] + O
surface tension liquid-gas [mN/m]
Conditions | 293 K | 303 K | 313 K
c1 = 1e-08 | 72.8 | 71.2 | 69.6
c1 = 5.01e-08 | 72.8 | 71.19 | 69.59
c1 = 1e-07 | 72.75 | 71.18 | 69.57
c1 = 5.01e-07 | 72.7 | 71.13 | 69.54
c1 = 1e-06 | 72.6 | 71.07 | 69.49
c1 = 5.01e-06 | 71.7 | 70.56 | 69.04
c1 = 1e-05 | 71.1 | 69.97 | 68.52
c1 = 2e-05 | 69.8 | 68.91 | 67.58
c1 = 5.01e-05 | 67.4 | 66.38 | 65.26
c1 = 0.0001 | 63 | 61.8 | 60.65
c1 = 0.0002 | 54.6 | 53.41 | 53.01
c1 = 0.000398 | 45.5 | 44.73 | 44.56
c1 = 0.000631 | 44.8 | 44.03 | 43.87
c1 = 0.000794 | 45.3 | 44.04 | 43.86
c1 = 0.001 | 44.4 | 43.92 | 43.75
c1 = 0.002 | 44 | 43.81 | 43.68
c1 = 0.00398 | 44.5 | 43.79 | 43.64
c1 = 0.00603 | 44.1 | 43.62 | 43.53
c1 = 0.00794 | 43.2 | 42.83 | 42.74
c1 = 0.01 | 43.2 | 42.75 | 42.65
c1 = 0.0302 | 39.4 | 38.89 | 38.9
c1 = 0.0603 | 38.8 | 38.02 | 37.95

CCCCCCCCCCCCCCCC[N+](C)(C)C.[Br-] [N,N,N-trimethyl-1-hexadecanaminium bromide] + O
surface tension liquid-gas [mN/m]
Conditions | 293 K | 303 K | 313 K
c1 = 1e-08 | 72.79 | 71.2 | 69.6
c1 = 1e-07 | 72.78 | 71.19 | 69.59
c1 = 5.01e-07 | 72.73 | 71.16 | 69.56
c1 = 1e-06 | 72.66 | 71.11 | 69.52
c1 = 2e-06 | 72.54 | 71.03 | 69.45
c1 = 3.98e-06 | 72.31 | 70.86 | 69.3
c1 = 6.31e-06 | 72.1 | 70.69 | 69.16
c1 = 7.94e-06 | 71.91 | 70.53 | 69.02
c1 = 1e-05 | 71.73 | 70.37 | 68.88
c1 = 2e-05 | 70.97 | 69.62 | 68.22
c1 = 3.02e-05 | 70.31 | 68.93 | 67.61
c1 = 3.98e-05 | 69.72 | 68.3 | 67.04
c1 = 5.01e-05 | 69.2 | 67.72 | 66.51
c1 = 6.03e-05 | 68.81 | 67.18 | 66.01
c1 = 7.08e-05 | 68.48 | 66.67 | 65.54
c1 = 7.94e-05 | 68.06 | 66.2 | 65.1
c1 = 9.12e-05 | 67.15 | 65.75 | 64.68
c1 = 0.0001 | 66.41 | 65.32 | 64.28
c1 = 0.0002 | 60.86 | 60.52 | 59.45
c1 = 0.000302 | 54.74 | 54.35 | 53.95
c1 = 0.000398 | 50.39 | 50.02 | 49.72
c1 = 0.000501 | 47.02 | 46.83 | 46.15
c1 = 0.000603 | 44.27 | 44.12 | 43.53
c1 = 0.000708 | 41.94 | 41.82 | 41.22
c1 = 0.000794 | 39.92 | 39.75 | 39
c1 = 0.000891 | 38.15 | 38.01 | 37.25
c1 = 0.000912 | 37.9 | 37.8 | 37
c1 = 0.001 | 37.9 | 37.2 | 36.4
c1 = 0.002 | 37.8 | 37.14 | 36.4

CCCCCCCCCCCC[N+](C)(C)Cc1ccccc1.[Br-] [benzenemethanaminium, N-dodecyl-N,N-dimethyl, bromide] + O
surface tension liquid-gas [mN/m]
Conditions | 293 K | 303 K | 313 K
c1 = 1e-07 | 72.4 | 71.18 | 69.58
c1 = 5.01e-07 | 72.3 | 71.09 | 69.49
c1 = 1e-06 | 71.6 | 70.98 | 69.38
c1 = 5.01e-06 | 70.7 | 70.22 | 68.59
c1 = 1e-05 | 69.6 | 69.44 | 67.78
c1 = 5.01e-05 | 66.8 | 65.88 | 64.1
c1 = 0.0001 | 64.3 | 63.66 | 61.81
c1 = 0.000316 | 55.3 | 54.19 | 53.4
c1 = 0.000501 | 51.7 | 50.07 | 49.15
c1 = 0.001 | 46.2 | 44.48 | 43.37
c1 = 0.002 | 41.1 | 40 | 38.93
c1 = 0.00316 | 37.8 | 36.73 | 35.76
c1 = 0.00398 | 36 | 34.82 | 33.92
c1 = 0.00501 | 34.5 | 33.11 | 32.67
c1 = 0.00708 | 34.5 | 33.11 | 32.67
c1 = 0.01 | 34.4 | 33.11 | 32.67

CCCCCCCCCCCC[N+](C)(C)CC.[Br-] [dodecyl ethyl dimethylammonium bromide] + O
surface tension liquid-gas [mN/m]
Conditions | 293 K | 303 K | 313 K
c1 = 1e-07 | 72.6 | 71.2 | 69.6
c1 = 5.01e-07 | 72.4 | 71.19 | 69.6
c1 = 1e-06 | 72.3 | 71.19 | 69.59
c1 = 5.01e-06 | 72.2 | 71.13 | 69.56
c1 = 1e-05 | 71.7 | 71.06 | 69.53
c1 = 5.01e-05 | 70.7 | 70.54 | 69.24
c1 = 0.0001 | 70 | 69.94 | 68.89
c1 = 0.000501 | 67.8 | 66.59 | 65.63
c1 = 0.001 | 65.1 | 63.91 | 62.94
c1 = 0.002 | 60.3 | 60.54 | 59.58
c1 = 0.00316 | 56.4 | 56.13 | 55.17
c1 = 0.00398 | 52.4 | 52.36 | 51.87
c1 = 0.00501 | 50 | 49.44 | 48.85
c1 = 0.00631 | 47.3 | 46.78 | 46.39
c1 = 0.00794 | 44.3 | 43.72 | 43.12
c1 = 0.00891 | 42.8 | 42.12 | 41.71
c1 = 0.01 | 41.5 | 40.73 | 39.82
c1 = 0.0251 | 40.9 | 40.01 | 39.43
c1 = 0.0501 | 40.6 | 39.82 | 38.75
c1 = 0.1 | 39.4 | 39 | 38.24
